For test [1], the target named is Serotonin 5-HT1A receptor (Homo sapiens (Human), UniProt P08908). The test can be described thus: Competitive binding, 8-OH-DPAT radioligand. How it is done:
(§1) R-55 (which comprises a 3-hydroxyphenyl moiety) and the structurally related compounds N-108 (2-{[4-(2-ethoxyphenyl)piperazin-1-yl]methyl}quinazolin-4(3H)-one) and B-39 (7-chloro-2-((5,6-dihydro-4-(2-methoxyphenyl)pyridin-1(2H)-yl)methyl)quinazolin-4(3H)-one) were assayed for competitive binding to a variety of receptors, including D4.4 type dopamine receptor, in order to assess their specificity for D4.4 dopamine receptors.
(§2) The receptors were expressed as human recombinant proteins in CHO cells, except for adrenergic α1 and α2 receptors which were expressed in Wistar rat brain and cerebral cortex cells, respectively, and melanocortin MC4 receptor which was expressed in human recombinant HEK-293 cells. Binding was determined using the following radioligands in the presence of various concentrations of the tested compound:
1.5 nM 8-OH-DPAT for serotonin 5-HT1A receptor, and
(§3) The binding assays were performed in accordance with procedures described in the literature (Greengrass & Bremner, 1979; Boyajian & Leslie, 1987; Broadhurst, 1988; Lewis, 2001; Sutton, 1995; Dearry, 1990; Zhou, 1990; Grandy, 1989; Hayes, 1992; Sokoloff, 1990; Van Tol, 1991; Van Tol 1992; Sunahara, 1991; Weinshank, 1991; Schioth, 1996; Schioth 1997; Martin & Humphrey, 1994; May, 2003; Wolf & Schutz, 1997).

The subject of test [2] is Adrenergic α2 receptor. The test can be described thus: Competitive binding, rauwolscine radioligand. Set-up: species or system Wistar rat. How it is done:
as §1, §2
0.7 nM rauwolscine for adrenergic α2 receptor,
as §3

In test [3] the target is Dopamine D4.4 receptor (Homo sapiens (Human), UniProt P21917). The test can be described thus: Competitive binding, spiperone radioligand. The procedure:
as §1, §2
(§4) 0.16 nM, 0.7 nM and 1.2 nM spiperone, respectively, for dopamine D2S, D3 and D4.4 receptors,
as §3

In test [4] the target is Dopamine D3 receptor (Homo sapiens (Human), UniProt P35462). The test can be described thus: Competitive binding, spiperone radioligand. The procedure: as §1, §2, §4, §3
Chain of Dopamine D3 receptor (P35462 whole entry): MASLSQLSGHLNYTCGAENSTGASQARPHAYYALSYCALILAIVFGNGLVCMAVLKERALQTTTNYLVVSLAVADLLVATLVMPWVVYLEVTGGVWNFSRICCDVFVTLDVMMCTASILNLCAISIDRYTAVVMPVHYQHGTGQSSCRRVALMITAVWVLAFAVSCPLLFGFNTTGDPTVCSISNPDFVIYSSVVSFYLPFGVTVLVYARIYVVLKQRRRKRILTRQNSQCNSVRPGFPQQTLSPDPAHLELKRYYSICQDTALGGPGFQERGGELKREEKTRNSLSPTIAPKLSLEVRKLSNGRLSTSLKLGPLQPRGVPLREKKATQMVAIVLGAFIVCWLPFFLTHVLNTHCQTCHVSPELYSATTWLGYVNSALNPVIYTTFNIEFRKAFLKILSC
Test [5] has as its target Dopamine D2S receptor (Homo sapiens (Human), UniProt P14416). The test can be described thus: Competitive binding, spiperone radioligand. The procedure:
as §1, §2, §4, §3

The target in test [6] is Dopamine D1 receptor (Homo sapiens (Human), UniProt P21728). The test can be described thus: Competitive binding, SCH-23390 radioligand. The procedure:
as §1, §2
(§5) 1.4 nM and 2 nM SCH-23390, respectively, for dopamine D1 and D5 receptors,
as §3

The target in test [7] is Dopamine D5 receptor (Homo sapiens (Human), UniProt P21918). The test can be described thus: Competitive binding, SCH-23390 radioligand. The procedure: as §1, §2, §5, §3
Chain of Dopamine D5 receptor (P21918 whole entry): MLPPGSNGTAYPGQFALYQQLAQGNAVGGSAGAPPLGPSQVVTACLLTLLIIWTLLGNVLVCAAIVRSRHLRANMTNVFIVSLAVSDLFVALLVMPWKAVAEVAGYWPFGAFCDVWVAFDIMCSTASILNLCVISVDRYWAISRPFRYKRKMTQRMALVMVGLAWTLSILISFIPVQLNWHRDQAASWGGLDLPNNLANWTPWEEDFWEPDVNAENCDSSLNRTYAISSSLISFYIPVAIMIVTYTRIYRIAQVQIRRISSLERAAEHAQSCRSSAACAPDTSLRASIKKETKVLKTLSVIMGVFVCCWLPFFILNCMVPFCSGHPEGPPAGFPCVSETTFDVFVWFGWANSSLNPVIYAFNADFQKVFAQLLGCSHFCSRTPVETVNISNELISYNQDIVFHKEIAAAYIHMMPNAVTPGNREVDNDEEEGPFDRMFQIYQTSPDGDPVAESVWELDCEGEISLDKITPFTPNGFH
For test [8], the target named is Serotonin 5-HT2C receptor (Homo sapiens (Human), UniProt P28335). The test can be described thus: Competitive binding, mesulergine radioligand. The procedure: as §1, §2
Chain of Serotonin 5-HT2C receptor (P28335 33-458): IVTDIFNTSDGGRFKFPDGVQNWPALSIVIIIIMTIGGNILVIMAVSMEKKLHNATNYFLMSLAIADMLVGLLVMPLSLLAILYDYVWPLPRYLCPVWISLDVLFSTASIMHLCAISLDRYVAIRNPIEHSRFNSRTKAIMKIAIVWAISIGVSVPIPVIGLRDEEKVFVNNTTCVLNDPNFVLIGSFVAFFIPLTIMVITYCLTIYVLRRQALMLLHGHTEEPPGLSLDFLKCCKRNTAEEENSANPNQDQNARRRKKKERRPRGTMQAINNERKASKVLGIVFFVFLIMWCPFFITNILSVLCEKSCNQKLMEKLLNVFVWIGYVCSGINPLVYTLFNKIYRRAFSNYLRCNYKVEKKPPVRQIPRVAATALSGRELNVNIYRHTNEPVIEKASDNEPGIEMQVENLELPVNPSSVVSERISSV
1 nM mesulergine for serotonin 5-HT2C receptor.
as §3

Test [9] has as its target Melanocortin MC4 receptor (Homo sapiens (Human), UniProt P32245). The test can be described thus: Competitive binding, NDP-α-MSH radioligand. The procedure:
as §1, §2
0.02 nM NDP-α-MSH for melanocortin MC4 receptor,
as §3

Test [10] deals with CRF1 receptor (Homo sapiens (Human), UniProt P34998). The test can be described thus: Competitive binding, (Tyr0)-CRF radioligand. How it is done: as §1, §2
Chain of CRF1 receptor (P34998 24-415): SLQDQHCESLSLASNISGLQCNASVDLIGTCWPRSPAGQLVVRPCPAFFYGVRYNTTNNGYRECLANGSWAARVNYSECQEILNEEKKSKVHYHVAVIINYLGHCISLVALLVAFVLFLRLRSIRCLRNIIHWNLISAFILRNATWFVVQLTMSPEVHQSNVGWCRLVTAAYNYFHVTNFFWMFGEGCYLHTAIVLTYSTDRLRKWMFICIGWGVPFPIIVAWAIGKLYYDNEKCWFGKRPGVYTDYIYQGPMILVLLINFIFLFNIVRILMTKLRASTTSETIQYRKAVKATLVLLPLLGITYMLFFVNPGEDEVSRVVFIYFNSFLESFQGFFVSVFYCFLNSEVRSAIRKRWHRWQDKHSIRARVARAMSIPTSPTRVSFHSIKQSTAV
0.05 nM)(Tyr^0)-corticotropin releasing factor (CRF) for corticotropin releasing factor CRF1 receptor,
as §3

For test [11], the system named is Adrenergic α1 receptor. The test can be described thus: Competitive binding, prazosin radioligand. Set-up: species or system Wistar rat. How it is done: as §1, §2
0.25 nM prazosin for adrenergic α1 receptor,
as §3

The values that follow come from US9353067B2, “Heterocyclic compounds and uses thereof in the treatment of sexual disorders” (ATIR Holding S.A., priority 2011, dated 2016).

The structures appear in SMILES notation.

Chain of Dopamine D4.4 receptor (P21917 whole entry): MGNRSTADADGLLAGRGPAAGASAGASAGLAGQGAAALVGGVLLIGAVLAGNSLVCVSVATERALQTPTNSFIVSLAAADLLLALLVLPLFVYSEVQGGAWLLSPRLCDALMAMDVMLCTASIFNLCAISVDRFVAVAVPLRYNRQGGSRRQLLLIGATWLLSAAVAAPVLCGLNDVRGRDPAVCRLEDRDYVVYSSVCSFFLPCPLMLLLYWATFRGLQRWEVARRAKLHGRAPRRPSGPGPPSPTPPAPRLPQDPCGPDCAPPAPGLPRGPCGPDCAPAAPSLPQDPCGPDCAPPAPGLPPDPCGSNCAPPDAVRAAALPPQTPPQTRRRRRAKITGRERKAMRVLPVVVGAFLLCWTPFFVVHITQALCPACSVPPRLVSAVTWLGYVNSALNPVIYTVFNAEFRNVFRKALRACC
Chain of Dopamine D2S receptor (P14416 other isoform, or with tags, fused parts or gaps): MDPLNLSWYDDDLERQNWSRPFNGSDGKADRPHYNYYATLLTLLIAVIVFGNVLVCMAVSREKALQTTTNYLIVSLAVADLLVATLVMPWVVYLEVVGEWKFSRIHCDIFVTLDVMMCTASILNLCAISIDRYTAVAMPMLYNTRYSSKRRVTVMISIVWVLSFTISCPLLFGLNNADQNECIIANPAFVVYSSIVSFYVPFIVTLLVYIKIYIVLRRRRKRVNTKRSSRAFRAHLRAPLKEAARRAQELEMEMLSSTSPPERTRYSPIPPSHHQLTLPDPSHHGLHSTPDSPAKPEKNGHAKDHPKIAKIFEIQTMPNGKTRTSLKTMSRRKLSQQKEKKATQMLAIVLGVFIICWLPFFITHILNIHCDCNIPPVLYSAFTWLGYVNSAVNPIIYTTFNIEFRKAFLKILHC
Chain of Dopamine D1 receptor (P21728 whole entry): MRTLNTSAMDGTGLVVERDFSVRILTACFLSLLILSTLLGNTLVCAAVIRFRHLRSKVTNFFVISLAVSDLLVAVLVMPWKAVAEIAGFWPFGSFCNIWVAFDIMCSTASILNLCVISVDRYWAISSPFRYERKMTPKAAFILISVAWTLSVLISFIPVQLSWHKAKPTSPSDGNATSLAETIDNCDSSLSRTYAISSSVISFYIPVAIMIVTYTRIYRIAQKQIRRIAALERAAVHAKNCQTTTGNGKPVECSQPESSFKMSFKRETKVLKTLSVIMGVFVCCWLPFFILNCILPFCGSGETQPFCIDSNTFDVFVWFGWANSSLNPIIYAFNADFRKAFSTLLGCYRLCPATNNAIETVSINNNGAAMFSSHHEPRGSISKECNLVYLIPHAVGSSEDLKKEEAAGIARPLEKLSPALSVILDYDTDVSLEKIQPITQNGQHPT
Chain of Serotonin 5-HT1A receptor (P08908 whole entry): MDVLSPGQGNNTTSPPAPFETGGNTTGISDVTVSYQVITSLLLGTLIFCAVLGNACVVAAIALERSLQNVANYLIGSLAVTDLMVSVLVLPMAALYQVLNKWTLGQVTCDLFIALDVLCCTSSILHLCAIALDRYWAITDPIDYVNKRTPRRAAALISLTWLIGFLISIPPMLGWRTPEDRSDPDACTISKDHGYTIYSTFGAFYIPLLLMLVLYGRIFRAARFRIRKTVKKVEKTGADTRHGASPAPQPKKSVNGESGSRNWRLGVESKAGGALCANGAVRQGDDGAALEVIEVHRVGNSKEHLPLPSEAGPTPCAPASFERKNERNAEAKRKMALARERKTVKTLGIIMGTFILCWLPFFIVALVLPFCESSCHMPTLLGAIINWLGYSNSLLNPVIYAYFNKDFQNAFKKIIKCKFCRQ
Chain of Melanocortin MC4 receptor (P32245 whole entry): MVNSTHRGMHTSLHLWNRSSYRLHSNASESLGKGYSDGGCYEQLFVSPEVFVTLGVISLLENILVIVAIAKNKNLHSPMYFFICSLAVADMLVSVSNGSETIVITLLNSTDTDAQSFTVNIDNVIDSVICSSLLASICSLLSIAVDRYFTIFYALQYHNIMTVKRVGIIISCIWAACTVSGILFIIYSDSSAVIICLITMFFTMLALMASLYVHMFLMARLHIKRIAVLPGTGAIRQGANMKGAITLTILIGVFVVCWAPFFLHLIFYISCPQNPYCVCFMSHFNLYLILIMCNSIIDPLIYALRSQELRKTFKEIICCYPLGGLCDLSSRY

`COc1ccccc1C1=CCN(Cc2nc3cc(Cl)ccc3c(=O)[nH]2)CC1` [Compound B-39, 7-chloro-2-((5,6-dihydro-4-(2-methoxyphenyl)pyridin-1(2H)-yl)methyl)quinazolin-4(3H)-one, reference compound]: the “Competitive binding (%) at 5 μM of tested compound” value in test [1] came out at 89%; in [2] it was 72%; in [3] (Dopamine D4.4 receptor, 5 μM), 57%; in [4] it was 32%; in test [5] it was 46%; in test [6], 4%. For the same molecule, the “Competitive binding (%) at 5 μM of tested compound” value is 7% in [7]; 56% in test [8]; 5% in test [9]; −5% in [10]; 54% in [11]. Moreover, in test [3] (Table 8), the “binding affinity to the D4.4 receptor (in words)” value is recorded as “high binding affinity”.
